Measurements: patent publication US7589185B2, “Nucleotide sequences and protein(s) encoded by such nucleotides for modulation of apoptosis” (Universita' degli Studi di Catanzaro “Magna Graecia”, priority 2001, dated 2009)

Tests used:
Air protein = assay: Intracellular expression of Air protein in primary B-CLL cells, immunofluorescence flow cytometry; type: cell-based, human
From the text: Presence of the Protein in primary ex vivo cells—We investigated whether our protein was present in primary ex vivo cells. (Procedures and conditions for isolation and culturing of primary cells are described in ref. 8-10). To this purpose, we first analysed three samples of B chronic lymphocytic leukemia (B-CLL) cells, since these cells can be considered a primary counterpart of the cell line that we initially studied. To detect the protein, we perform intracellular immuno-fluorescence experiments. 1−2×10^6 cells were fixed and permeabilised with 250 microl of Cytofix/Cytoperm (Pharmingen) solution, then incubated with the specific anti-Air rabbit polyclonal or a control rabbit antibody, followed by washing with Perm/Wash (Pharmingen) and a second incubation with fluorescein isothiocyanate (FITC)-conjugated goat anti-rabbit antibody. Then the cells were analysed with a FACScan (Becton Dickinson) flow cytometer. These experiments allowed to detect the presence of the protein in the three analysed B-CLL samples (FIGS. 7, 8 and 9).
FIG. 7—Intracellular expression of Air protein in cells from a patient affected by B-CLL. 2×10^6/ml cells obtained from patient's peripheral blood by centrifugation through Ficoll-Hypaque were incubated 24 h at 37° C. in a 5% CO2 atmosphere in the absence or presence of 2 mM DEM, fixed and permeabilised with 250 microl of Cytofix/Cytoperm (Pharmingen) solution. The cells were then incubated with the specific anti-Air rabbit polyclonal or a control rabbit antibody, followed by washing with Perm/Wash (Pharmingen) and a second incubation with fluorescein isothiocyanate (FITC)-conjugated goat anti-rabbit antibody. Then the cells were analysed with a FACScan (Becton Dickinson) flow cytometer. A panel: unstimulated cells. B panel: DEM-stimulated cells. Protein expression is detected in the 33.8% of the cells in basal conditions and in the 47.6% of the cells incubated with DEM.
FIG. 8—Intracellular expression of Air protein in cells from a patient affected by B-CLL. 2×10^6/ml cells obtained from patient's peripheral blood by centrifugation through Ficoll-Hypaque were incubated 24 h at 37° C. in a 5% CO2 atmosphere in the absence or presence of 2 mM DEM or 20 microM 2-Methoxymethylestradiol (2-ME), fixed and permeabilised with 250 microl of Cytofix/Cytoperm (Pharmingen) solution. The cells were then incubated with the specific anti-Air rabbit polyclonal or a control rabbit antibody, followed by washing with Perm/Wash (Pharmingen) and a second incubation with fluoresceinisothiocyanate (FITC)-conjugated goat anti-rabbit antibody. Then the cells were analysed with a FACScan (Becton Dickinson) flow cytometer. A panel: unstimulated cells. B panel: DEM-stimulated cells. C panel: cells stimulated with the drug 2-Methoxymethylestradiol (2-ME). Protein expression is detected in the 17.3% of the cells in basal conditions, in the 55.5% of DEM-stimulated cells and in the 53.1% of 2-ME-stimulated cells.
FIG. 9—Intracellular expression of Air protein in a patient affected by B-CLL. […] Then the cells were analysed with a FACScan (Becton Dickinson) flow cytometer. […] Protein expression is detected in the 27.2% of the cells in basal conditions, in the 28.3% of DEM-stimulated cells and in the 23.1% of 2-ME-stimulated cells.

[1] = system: SH-SY5Y neuroblastoma cells; assay: Apoptosis of SH-SY5Y neuroblastoma cells induced by DEM, propidium iodide flow cytometry; type: cell-based, human; settings: 2 or 6 mM DEM, oligonucleotides 7 microM, 12 or 16 h (FIGS. 3-6)

In the case of COCc1cc2c(cc1O)CC[C@@H]1[C@@H]2CC[C@]2(C)[C@@H](O)CC[C@@H]12 [2-ME, 2-Methoxymethylestradiol], the “cells in which Air protein expression is detected” value (“cells” for short) (Air protein; B-CLL patient of FIG. 8, 20 microM 2-ME, 24 h (basal 17.3%)) is reported as 53.1% and the “cells” value (Air protein; B-CLL patient of FIG. 9, 20 microM 2-ME, 24 h (basal 27.2%)) is reported as 23.1%.
With CCOC(=O)/C=C\C(=O)OCC [DEM, diethylmaleate] the “cells” value (Air protein; B-CLL patient of FIG. 7, 2 mM DEM, 24 h (basal 33.8%)) was 47.6%, the “cells” value (Air protein; B-CLL patient of FIG. 8, 2 mM DEM, 24 h (basal 17.3%)) was 55.5% and the “cells” value (Air protein; B-CLL patient of FIG. 9, 2 mM DEM, 24 h (basal 27.2%)) was 28.3%.
“SEQ ID NO 6: antisense phosphorothioate oligonucleotide directed at blocking Air synthesis (CTTAGTCTTATACATTTTTTTAAAATC; all phosphorothioate, sugars by position and methylation of C not given here)” was tested, and the modulation of apoptosis [1] was “blocking it”.
For “SEQ ID NO 7: antisense phosphorothioate oligonucleotide directed at blocking Air synthesis (ATCTTAGTCTTATACATTTTTTTAAA; all phosphorothioate, sugars by position and methylation of C not given here)”, the modulation of apoptosis [1] was “blocking it”.
In the case of “SEQ ID NO 8: antisense phosphorothioate oligonucleotide directed at blocking Air synthesis (CTTTCTATCTTCATTTTATTTTTCC; all phosphorothioate, sugars by position and methylation of C not given here)”, the modulation of apoptosis [1] is reported as “blocking it”.
